Measured values published in patent publication US9527869B2, “Indolizine derivatives as phoshoinositide 3-kinases inhibitors” (CHIESI FARMACEUTICI S.P.A., priority 2014, dated 2016).
Where a name gives a salt, the structure may show the parent alone.

Legend:
Type in all cases: biochemical
[1] = molecular target: T1, PI3Kα (Homo sapiens, UniProt P42336); assay: In vitro determination of the PI3K enzyme inhibitory activity in the cell free assay (ADP-Glo Kinase Assay), PI3Kα; conditions: ATP 50 μM, read-out: PI3K alpha inhibition
T1 construct: purchased Millipore Ltd (Billerica, Mass.)
Summary of the method: (§1)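 IC50 values came from four-parameter logistic fitting of ADP-Glo luminescence after 60 min kinase reactions at room temperature. ATP (final) was set per isoform: α 50 μM, β 100 μM, γ 30 μM, δ 80 μM. Substrates were phosphatidylinositol and phosphatidylserine (50 μM in 2× Tris pH 7.5 buffer), with human recombinant enzymes.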

[2] = molecular target: T2, PI3Kβ (Homo sapiens, UniProt P42338); assay: In vitro determination of the PI3K enzyme inhibitory activity in the cell free assay (ADP-Glo Kinase Assay), PI3Kβ; conditions: ATP 100 μM, read-out: PI3K beta inhibition
T2 construct: purchased Millipore Ltd (Billerica, Mass.)
Summary of the method: as §1

[3] = molecular target: T3, PI3Kγ (Homo sapiens, UniProt P48736); assay: In vitro determination of the PI3K enzyme inhibitory activity in the cell free assay (ADP-Glo Kinase Assay), PI3Kγ; conditions: ATP 30 μM, read-out: PI3K gamma inhibition
T3 construct: purchased Millipore Ltd (Billerica, Mass.)
Summary of the method: as §1

[4] = molecular target: T4, PI3Kδ (Homo sapiens, UniProt O00329); assay: In vitro determination of the PI3K enzyme inhibitory activity in the cell free assay (ADP-Glo Kinase Assay), PI3Kδ; conditions: ATP 80 μM, read-out: PI3K delta inhibition
T4 construct: purchased Millipore Ltd (Billerica, Mass.)
Summary of the method: as §1

T3 sequence (P48736 whole entry): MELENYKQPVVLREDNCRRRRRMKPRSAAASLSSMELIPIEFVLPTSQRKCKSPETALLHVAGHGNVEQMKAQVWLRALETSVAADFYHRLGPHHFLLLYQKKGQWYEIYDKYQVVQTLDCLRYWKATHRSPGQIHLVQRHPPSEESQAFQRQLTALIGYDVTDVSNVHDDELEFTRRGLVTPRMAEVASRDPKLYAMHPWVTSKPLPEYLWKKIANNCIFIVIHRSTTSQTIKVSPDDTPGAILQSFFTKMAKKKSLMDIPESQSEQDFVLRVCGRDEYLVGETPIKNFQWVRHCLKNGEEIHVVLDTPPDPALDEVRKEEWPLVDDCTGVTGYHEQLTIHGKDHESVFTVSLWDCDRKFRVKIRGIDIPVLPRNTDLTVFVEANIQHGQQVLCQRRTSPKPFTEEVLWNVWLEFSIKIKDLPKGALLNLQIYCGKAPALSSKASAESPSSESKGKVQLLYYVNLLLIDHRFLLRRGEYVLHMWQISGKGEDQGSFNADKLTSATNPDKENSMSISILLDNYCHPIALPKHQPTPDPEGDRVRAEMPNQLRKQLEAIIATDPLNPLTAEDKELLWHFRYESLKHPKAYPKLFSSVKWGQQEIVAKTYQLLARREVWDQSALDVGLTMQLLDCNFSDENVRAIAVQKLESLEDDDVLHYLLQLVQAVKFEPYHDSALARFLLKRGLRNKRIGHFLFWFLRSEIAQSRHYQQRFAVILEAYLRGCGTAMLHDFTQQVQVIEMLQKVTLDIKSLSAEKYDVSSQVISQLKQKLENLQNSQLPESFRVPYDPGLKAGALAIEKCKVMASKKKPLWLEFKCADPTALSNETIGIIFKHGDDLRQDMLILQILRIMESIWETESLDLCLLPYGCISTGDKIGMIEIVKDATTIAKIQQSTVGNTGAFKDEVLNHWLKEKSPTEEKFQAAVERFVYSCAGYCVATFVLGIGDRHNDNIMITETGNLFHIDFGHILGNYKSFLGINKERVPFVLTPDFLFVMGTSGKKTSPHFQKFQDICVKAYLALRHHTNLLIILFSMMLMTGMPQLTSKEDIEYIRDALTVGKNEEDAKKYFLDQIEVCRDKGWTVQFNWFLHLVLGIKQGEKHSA
T4 sequence (O00329 whole entry): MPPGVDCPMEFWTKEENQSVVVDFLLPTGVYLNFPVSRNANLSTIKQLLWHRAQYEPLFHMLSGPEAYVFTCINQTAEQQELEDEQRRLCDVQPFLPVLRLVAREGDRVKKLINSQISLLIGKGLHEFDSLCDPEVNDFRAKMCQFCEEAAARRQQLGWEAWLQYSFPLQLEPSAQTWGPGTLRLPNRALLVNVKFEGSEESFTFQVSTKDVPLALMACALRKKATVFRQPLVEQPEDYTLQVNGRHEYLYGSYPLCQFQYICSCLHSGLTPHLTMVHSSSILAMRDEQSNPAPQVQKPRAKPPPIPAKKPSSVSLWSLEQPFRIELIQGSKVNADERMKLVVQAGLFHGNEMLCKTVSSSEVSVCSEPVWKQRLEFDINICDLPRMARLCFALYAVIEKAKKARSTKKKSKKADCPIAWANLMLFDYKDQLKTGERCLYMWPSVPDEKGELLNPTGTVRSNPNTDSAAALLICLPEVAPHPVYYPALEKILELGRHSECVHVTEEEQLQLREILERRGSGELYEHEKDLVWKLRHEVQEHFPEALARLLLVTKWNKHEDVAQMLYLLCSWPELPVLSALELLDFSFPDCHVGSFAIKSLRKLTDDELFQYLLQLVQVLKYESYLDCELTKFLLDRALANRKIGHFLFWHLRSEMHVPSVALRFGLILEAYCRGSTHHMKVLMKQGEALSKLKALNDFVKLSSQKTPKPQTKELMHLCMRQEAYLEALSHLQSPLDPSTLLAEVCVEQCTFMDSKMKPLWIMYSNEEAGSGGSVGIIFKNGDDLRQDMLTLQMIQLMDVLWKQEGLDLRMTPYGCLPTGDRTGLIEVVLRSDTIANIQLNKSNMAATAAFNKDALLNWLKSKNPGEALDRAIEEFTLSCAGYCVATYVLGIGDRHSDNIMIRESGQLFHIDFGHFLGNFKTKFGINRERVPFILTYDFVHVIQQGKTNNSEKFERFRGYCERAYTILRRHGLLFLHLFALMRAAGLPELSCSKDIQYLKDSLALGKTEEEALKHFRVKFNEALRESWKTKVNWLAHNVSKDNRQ
T4 sequence (P27986 whole entry partner): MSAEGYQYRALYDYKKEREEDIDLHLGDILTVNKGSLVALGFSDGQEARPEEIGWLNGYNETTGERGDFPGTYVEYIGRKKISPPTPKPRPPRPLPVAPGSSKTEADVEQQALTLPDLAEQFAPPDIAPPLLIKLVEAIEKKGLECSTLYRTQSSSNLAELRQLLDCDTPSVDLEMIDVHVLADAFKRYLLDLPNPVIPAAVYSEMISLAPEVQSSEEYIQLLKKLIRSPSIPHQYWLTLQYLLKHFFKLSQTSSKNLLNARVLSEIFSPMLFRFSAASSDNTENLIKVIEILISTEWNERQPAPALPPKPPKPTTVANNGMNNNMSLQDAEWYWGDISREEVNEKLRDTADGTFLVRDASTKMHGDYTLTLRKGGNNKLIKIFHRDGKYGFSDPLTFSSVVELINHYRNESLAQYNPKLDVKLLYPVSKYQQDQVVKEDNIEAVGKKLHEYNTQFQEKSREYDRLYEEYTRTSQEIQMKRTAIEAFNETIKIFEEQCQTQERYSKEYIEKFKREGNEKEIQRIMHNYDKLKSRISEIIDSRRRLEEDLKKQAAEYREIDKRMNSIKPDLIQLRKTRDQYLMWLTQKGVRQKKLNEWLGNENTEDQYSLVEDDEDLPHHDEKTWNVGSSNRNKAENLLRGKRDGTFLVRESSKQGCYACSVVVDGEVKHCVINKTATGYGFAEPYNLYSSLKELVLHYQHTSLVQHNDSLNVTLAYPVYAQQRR
T1 sequence (P42336 whole entry): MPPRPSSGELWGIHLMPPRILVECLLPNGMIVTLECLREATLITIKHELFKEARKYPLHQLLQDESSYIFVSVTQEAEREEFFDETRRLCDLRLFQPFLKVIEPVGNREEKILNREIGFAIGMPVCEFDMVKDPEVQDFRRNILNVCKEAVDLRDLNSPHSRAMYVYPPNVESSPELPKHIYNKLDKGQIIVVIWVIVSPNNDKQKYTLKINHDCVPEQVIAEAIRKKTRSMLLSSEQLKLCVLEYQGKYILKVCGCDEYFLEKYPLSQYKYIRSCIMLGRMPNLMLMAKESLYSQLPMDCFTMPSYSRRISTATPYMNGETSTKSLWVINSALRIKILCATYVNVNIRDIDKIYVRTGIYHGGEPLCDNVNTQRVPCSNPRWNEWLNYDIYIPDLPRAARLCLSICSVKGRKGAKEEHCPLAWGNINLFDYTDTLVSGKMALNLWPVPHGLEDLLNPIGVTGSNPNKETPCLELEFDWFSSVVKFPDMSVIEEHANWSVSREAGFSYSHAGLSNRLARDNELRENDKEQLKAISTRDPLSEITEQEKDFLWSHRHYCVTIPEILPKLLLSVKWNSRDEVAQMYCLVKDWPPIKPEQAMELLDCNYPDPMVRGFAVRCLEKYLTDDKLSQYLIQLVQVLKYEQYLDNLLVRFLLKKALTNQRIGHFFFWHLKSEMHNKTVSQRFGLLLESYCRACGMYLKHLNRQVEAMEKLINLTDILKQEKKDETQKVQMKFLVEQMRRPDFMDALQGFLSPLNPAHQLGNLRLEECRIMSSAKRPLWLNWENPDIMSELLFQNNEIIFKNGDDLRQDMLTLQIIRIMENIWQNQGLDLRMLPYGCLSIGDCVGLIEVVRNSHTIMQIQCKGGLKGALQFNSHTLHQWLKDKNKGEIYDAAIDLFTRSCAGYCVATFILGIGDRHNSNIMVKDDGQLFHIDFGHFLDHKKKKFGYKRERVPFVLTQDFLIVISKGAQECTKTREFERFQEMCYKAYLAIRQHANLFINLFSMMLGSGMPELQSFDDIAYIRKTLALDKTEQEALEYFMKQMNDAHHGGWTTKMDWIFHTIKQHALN
T1 sequence (P27986 whole entry partner): as the sequence (P27986 whole entry partner) above
T2 sequence (P42338 whole entry): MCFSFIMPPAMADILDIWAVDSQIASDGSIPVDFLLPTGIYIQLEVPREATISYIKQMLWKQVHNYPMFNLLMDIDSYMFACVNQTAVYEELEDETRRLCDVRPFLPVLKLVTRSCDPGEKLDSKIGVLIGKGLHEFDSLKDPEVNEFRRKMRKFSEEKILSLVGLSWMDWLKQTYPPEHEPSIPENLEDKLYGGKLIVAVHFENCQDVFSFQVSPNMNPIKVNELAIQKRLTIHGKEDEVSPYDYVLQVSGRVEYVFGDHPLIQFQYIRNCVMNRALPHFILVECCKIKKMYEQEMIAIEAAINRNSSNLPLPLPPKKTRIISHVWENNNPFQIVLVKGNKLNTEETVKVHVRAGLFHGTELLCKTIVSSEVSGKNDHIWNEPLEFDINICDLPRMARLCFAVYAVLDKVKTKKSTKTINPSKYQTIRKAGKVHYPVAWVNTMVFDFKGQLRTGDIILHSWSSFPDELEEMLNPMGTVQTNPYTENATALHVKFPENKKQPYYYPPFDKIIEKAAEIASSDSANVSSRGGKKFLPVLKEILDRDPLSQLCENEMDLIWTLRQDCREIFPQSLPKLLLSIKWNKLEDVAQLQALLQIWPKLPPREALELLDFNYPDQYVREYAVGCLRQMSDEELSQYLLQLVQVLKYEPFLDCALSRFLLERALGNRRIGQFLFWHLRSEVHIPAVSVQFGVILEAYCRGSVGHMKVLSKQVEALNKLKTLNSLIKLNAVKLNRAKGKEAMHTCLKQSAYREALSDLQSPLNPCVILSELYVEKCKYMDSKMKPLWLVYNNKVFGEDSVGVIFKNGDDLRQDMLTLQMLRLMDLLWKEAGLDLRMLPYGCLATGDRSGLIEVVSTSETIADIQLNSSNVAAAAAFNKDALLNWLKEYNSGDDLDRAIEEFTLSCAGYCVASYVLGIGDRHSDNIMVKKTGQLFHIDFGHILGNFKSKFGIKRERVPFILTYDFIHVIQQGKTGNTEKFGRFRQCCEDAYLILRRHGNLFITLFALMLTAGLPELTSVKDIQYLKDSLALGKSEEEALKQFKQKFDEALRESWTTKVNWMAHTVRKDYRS
T2 sequence (P27986 whole entry partner): as the sequence (P27986 whole entry partner) above

Row | Structure (SMILES) | IC50 [1] | IC50 [2] | IC50 [3] | IC50 [4]
1 | CC(c1cc2ccccn2c1-c1ccc(C(=O)N2CCOCC2)cn1)n1nc(-c2cc(O)cc(F)c2)c2c(N)ncnc21 (stereo not shown) [Example 125, 3-[4-amino-1-(1-{3-[5-(morpholine-4-carbonyl)pyridin-2-yl]indolizin-2-yl}ethyl)-1H-pyrazolo[3,4-d]-pyrimidin-3-yl]-5-fluorophenol] | 0.01 to 1 µM | 0.01 to 1 µM | 0.01 to 1 µM | < 0.01 µM
2 | CC(c1cc2ccccn2c1-c1ccccn1)n1nc(-c2cc(O)cc(F)c2)c2c(N)ncnc21 (racemic) [Example 79, 3-(4-amino-1-{1-[3-(pyridin-2-yl)indolizin-2-yl]ethyl}-1H-pyrazolo[3,4-d]pyrimidin-3-yl)-5-fluorophenol] | 0.01 to 1 µM | 0.01 to 1 µM | 0.01 to 1 µM | < 0.01 µM
3 | CC(c1cc2ccccn2c1CN1CCC2(CCN(C)CC2)CC1)n1nc(-c2cc(O)cc(F)c2)c2c(N)ncnc21 (stereo not shown) [Example 143, 3-(4-amino-1-{1-[3-({9-methyl-3,9-diazaspiro[5.5]undecan-3-yl}methyl)indolizin-2-yl]ethyl}-1H-pyrazolo[3,4-d]pyrimidin-3-yl)-5-fluorophenol] | 0.01 to 1 µM | 0.01 to 1 µM | 0.01 to 1 µM | < 0.01 µM
4 | Cc1ccccc1-c1c(CNc2ncnc3[nH]cnc23)cn2ccccc12 [Example 19, N-{[1-(2-methylphenyl)indolizin-2-yl]methyl}-9H-purin-6-amine] | > 1 µM | > 1 µM | > 1 µM | > 1 µM
5 | CC(c1cc2ccccn2c1-c1ccccn1)n1nc(-c2ccc(F)c(O)c2)c2c(N)ncnc21 (stereo not shown) [Example 71, 5-(4-amino-1-{1-[3-(pyridin-2-yl)indolizin-2-yl]ethyl}-1H-pyrazolo[3,4-d]pyrimidin-3-yl)-2-fluorophenol] | > 1 µM | > 1 µM | 0.01 to 1 µM | 0.01 to 1 µM
6 | CC(Nc1ncnc(N)c1C(=O)O)c1cc2ccccn2c1-c1ccccn1 (stereo not shown) [Example 53, 4-amino-6-({1-[3-(pyridin-2-yl)indolizin-2-yl]ethyl}amino)pyrimidine-5-carboxylic acid formate] | > 1 µM | > 1 µM | > 1 µM | > 1 µM
7 | CC(c1cc2ccccn2c1-c1ccccn1)n1nc(-c2cc(F)cc(-c3nnn[nH]3)c2)c2c(N)ncnc21 (stereo not shown) [Example 78, 3-[3-fluoro-5-(1H-1,2,3,4-tetrazol-5-yl)phenyl]-1-{1-[3-(pyridin-2-yl)indolizin-2-yl]ethyl}-1H-pyrazolo[3,4-d]pyrimidin-4-amine:ammonia 2:1] | > 1 µM | > 1 µM | > 1 µM | > 1 µM
8 | Nc1ncnc2c1c(-c1cc(O)cc(F)c1)nn2Cc1cc2cccnn2c1-c1ccccn1 [Example 100, 3-(4-amino-1-{[7-(pyridin-2-yl)pyrrolo[1,2-b]pyridazin-6-yl]methyl}-1H-pyrazolo[3,4-d]pyrimidin-3-yl)-5-fluorophenol] | > 1 µM | 0.01 to 1 µM | 0.01 to 1 µM | < 0.01 µM
9 | CC(c1cc2ccccn2c1-c1ccccn1)n1nc(-c2cc(F)cc(NS(C)(=O)=O)c2)c2c(N)ncnc21 (stereo not shown) [Example 74, N-[3-(4-amino-1-{1-[3-(pyridin-2-yl)indolizin-2-yl]ethyl}-1H-pyrazolo[3,4-d]pyrimidin-3-yl)-5-fluorophenyl]methanesulfonamide] | > 1 µM | > 1 µM | > 1 µM | 0.01 to 1 µM
10 | Nc1ncnc2c1ncn2Cc1cc2ccccn2c1-c1ccccn1 [Example 3, 9-{[3-(pyridin-2-yl)indolizin-2-yl]methyl}-9H-purin-6-amine] | > 1 µM | > 1 µM | > 1 µM | > 1 µM
11 | CC(c1cc2ccccn2c1-c1ccccn1)n1nc(-c2cccc(S(N)(=O)=O)c2)c2c(N)ncnc21 (stereo not shown) [Example 73, 3-(4-amino-1-{1-[3-(pyridin-2-yl)indolizin-2-yl]ethyl}-1H-pyrazolo[3,4-d]pyrimidin-3-yl)benzene-1-sulfonamide] | > 1 µM | > 1 µM | > 1 µM | 0.01 to 1 µM
12 | CC(c1cc2ccccn2c1-c1ccn(CCN(C)C)c(=O)c1)n1nc(-c2cc(O)cc(F)c2)c2c(N)ncnc21 (single isomer, unassigned) [Example 133b, 4-(2-{1-[4-amino-3-(3-fluoro-5-hydroxyphenyl)-1H-pyrazolo[3,4-d]pyrimidin-1-yl]ethyl}indolizin-3-yl)-1-[2-(dimethylamino)ethyl]-1,2-dihydropyridin-2-one] | 0.01 to 1 µM | 0.01 to 1 µM | 0.01 to 1 µM | < 0.01 µM
13 | CC(c1cc2ccc(C(F)(F)F)cn2c1-c1ccccn1)n1nc(-c2cc(O)cc(F)c2)c2c(N)ncnc21 (stereo not shown) [Example 88, 3-(4-amino-1-{1-[3-(pyridin-2-yl)-6-(trifluoromethyl)indolizin-2-yl]ethyl}-1H-pyrazolo[3,4-d]pyrimidin-3-yl)-5-fluorophenol] | > 1 µM | > 1 µM | > 1 µM | 0.01 to 1 µM
14 | CC(NC(=O)c1nccnc1N)c1cc2ccccn2c1-c1ccccn1 (stereo not shown) [Example 54, 3-amino-N-{1-[3-(pyridin-2-yl)indolizin-2-yl]ethyl}pyrazine-2-carboxamide] | > 1 µM | > 1 µM | > 1 µM | > 1 µM
15 | CC(c1cc2ccccn2c1-c1ccc(OCCN2CCOCC2)cn1)n1nc(-c2cc(O)cc(F)c2)c2c(N)ncnc21 (stereo not shown) [Example 119, 3-{4-amino-1-[1-(3-{5-[2-(morpholin-4-yl)ethoxy]pyridin-2-yl}indolizin-2-yl)ethyl]-1H-pyrazolo[3,4-d]-pyrimidin-3-yl}-5-fluorophenol] | > 1 µM | 0.01 to 1 µM | > 1 µM | < 0.01 µM
16 | Fc1cccc(-c2c(CNc3ncnc4[nH]cnc34)cn3ccccc23)c1 [Example 18, N-{[1-(3-fluorophenyl)indolizin-2-yl]methyl}-9H-purin-6-amine] | > 1 µM | > 1 µM | > 1 µM | 0.01 to 1 µM
17 | CC(c1cc2cccnn2c1-c1cccc(CN(C)C)c1)n1nc(-c2cc(O)cc(F)c2)c2c(N)ncnc21 (stereo not shown) [Example 128, 3-{4-amino-1-[1-(7-{3-[(dimethylamino)-methyl]phenyl}pyrrolo[1,2-b]pyridazin-6-yl)-ethyl]-1H-pyrazolo[3,4-d]pyrimidin-3-yl}-5-fluorophenol] | > 1 µM | 0.01 to 1 µM | > 1 µM | 0.01 to 1 µM
18 | CC(Nc1ncnc(N)c1Br)c1cc2ccccn2c1-c1ccccn1 (stereo not shown) [Example 48, 5-bromo-4-N-{1-[3-(pyridin-2-yl)indolizin-2-yl]ethyl}pyrimidine-4,6-diamine] | > 1 µM | > 1 µM | > 1 µM | 0.01 to 1 µM
19 | CC(c1cc2ccccn2c1-c1ccccc1F)n1nc(-c2cc(O)cc(F)c2)c2c(N)ncnc21 (stereo not shown) [Example 86, 3-(4-amino-1-{1-[3-(2-fluorophenyl)indolizin-2-yl]ethyl}-1H-pyrazolo[3,4-d]pyrimidin-3-yl)-5-fluoro-phenol] | > 1 µM | > 1 µM | 0.01 to 1 µM | 0.01 to 1 µM
20 | CC(c1cc2ccccn2c1-c1cc(CN2CCOCC2)ccn1)n1nc(-c2cc(O)cc(F)c2)c2c(N)ncnc21 (stereo not shown) [Example 111, 3-[4-amino-1-(1-{3-[4-(morpholin-4-ylmethyl)pyridin-2-yl]indolizin-2-yl}ethyl)-1H-pyrazolo[3,4-d]-pyrimidin-3-yl]-5-fluorophenol] | > 1 µM | 0.01 to 1 µM | 0.01 to 1 µM | < 0.01 µM
21 | Nc1ncnc2c1c(-c1cc(O)cc(F)c1)nn2Cc1cc2ccccn2c1-c1ccccn1 [Example 97, 3-(4-amino-1-{[3-(pyridin-2-yl)indolizin-2-yl]methyl}-1H-pyrazolo[3,4-d]pyrimidin-3-yl)-5-fluorophenol] | 0.01 to 1 µM | 0.01 to 1 µM | 0.01 to 1 µM | < 0.01 µM
22 | Cc1c(N)ncnc1NC(C)c1cc2ccccn2c1-c1ccccn1 (stereo not shown) [Example 50, 5-methyl-4-N-{1-[3-(pyridin-2-yl)indolizin-2-yl]ethyl}pyrimidine-4,6-diamine] | > 1 µM | > 1 µM | > 1 µM | 0.01 to 1 µM
23 | C[C@H](c1cc2ccccn2c1-c1ccc(CN2CCN(C)CC2)cn1)n1nc(-c2cc(O)cc(F)c2)c2c(N)ncnc21 (single isomer, unassigned) [Example 114b, 3-{4-amino-1-[1-(3-{5-[(4-methylpiperazin-1-yl)methyl]pyridin-2-yl}indolizin-2-yl)ethyl]-1H-pyrazolo[3,4-d]pyrimidin-3-yl}-5-fluorophenol] | 0.01 to 1 µM | 0.01 to 1 µM | 0.01 to 1 µM | < 0.01 µM
24 | Nc1ncnc2c1c(-c1cc(O)cc(F)c1)nn2Cc1cc2ccccn2c1-c1ccncc1 [Example 99, 3-(4-amino-1-{[3-(pyridin-4-yl)indolizin-2-yl]methyl}-1H-pyrazolo[3,4-d]pyrimidin-3-yl)-5-fluorophenol] | 0.01 to 1 µM | 0.01 to 1 µM | 0.01 to 1 µM | < 0.01 µM
25 | CC(c1cc2ccccn2c1-c1cccc(CN(C)C)c1)n1nc(-c2cc(O)cc(F)c2)c2c(N)ncnc21 (racemic) [Example 93, 3-{4-amino-1-[1-(3-{3-[(dimethylamino)methyl]phenyl}indolizin-2-yl)ethyl]-1H-pyrazolo[3,4-d]pyrimidin-3-yl}-5-fluorophenol] | 0.01 to 1 µM | 0.01 to 1 µM | 0.01 to 1 µM | 0.01 to 1 µM
